Reference: patent US20230241185A1, “COMPOSITION COMPRISING A DNA-DEGRADING ENZYME FOR USE IN A METHOD FOR THE TREATMENT OF IMMUNOSUPPRESSION AFTER ACUTE TISSUE INJURY” (Klinikum der Universität München, priority 2020, published 2023)
Entries after “also recorded” stand apart in the source; their conditions may differ.

Assays:
Assay type in all cases: in vivo, mice
splenic CD3^+ T cells [1] = test: Splenic T cell counts by FACS after experimental stroke; conditions: VX-765 100 mg kg^−1 i.p. 1 h prior to stroke vs vehicle; normalized to sham
Text: Mice were anaesthetized with isoflurane delivered in a mixture of 30% O2 and 70% N2O. An incision was made between the ear and the eye in order to expose the temporal bone. Mice were placed in supine position, and a laser Doppler probe was affixed to the skull above the middle cerebral artery (MCA) territory. The common carotid artery and left external carotid artery were exposed via midline incision and further isolated and ligated. A 2-mm silicon-coated filament (Doccol) was inserted into the internal carotid artery, advanced gently to the MCA until resistance was felt, and occlusion was confirmed by a corresponding decrease in blood flow (i.e., a decrease in the laser Doppler flow signal by 80%. After 60 minutes of occlusion, the animals were re-anesthetized, and the filament was removed. After recovery, the mice were kept in their home cage with ad libitum access to water and food. Sham-operated mice received the same surgical procedure, but the filament was […] in lieu of being advanced to the MCA. Body temperature was maintained at 37° C. throughout surgery in all mice via feedback-controlled heating pad. The overall mortality rate of animals subjected to MCA occlusion was approximately 20%. All animals in the sham group survived the procedure. Exclusion criteria: 1. Insufficient MCA occlusion (a reduction in blood flow to […] of the baseline value). 2. Death during the surgery. 3. Lack of brain ischemia as quantified post-mortem by histological analysis.
Anti-IL1β: Mice received two injections of antagonizing anti-IL-1β in sterile saline (clone: B122, InVivoMab, BioXcell, US), 1 hour prior to and 1 hour after surgery. Anti-IL-1β or the corresponding IgG control (Armenian hamster IgG, InVivoMab, BioXcell, US) was injected i.p. at a dose of 4 mg kg^−1 body weight in a final volume of 200 μl.
Anti-FasL: Mice received two injections of antagonizing anti-FasL in sterile saline (clone: MFL3, InVivoMab, BioXcell, US), 1 hour prior to and 1 hour after surgery. […]

CD45^+ splenocytes [2] = test: CD45+ splenocyte counts (spleen cellularity) by FACS after experimental stroke; conditions: VX-765 100 mg kg^−1 i.p. 1 h prior to stroke vs vehicle; normalized to sham
Text: (§1) Mice were anaesthetized with isoflurane delivered in a mixture of 30% O2 and 70% N2O. An incision was made between the ear and the eye in order to expose the temporal bone. Mice were placed in supine position, and a laser Doppler probe was affixed to the skull above the middle cerebral artery (MCA) territory. The common carotid artery and left external carotid artery were exposed via midline incision and further isolated and ligated. […] Lack of brain ischemia as quantified post-mortem by histological analysis. […]
(§2) The anti-mouse antibodies listed below (see Table 1) were used for surface marker staining of CD45^+ leukocytes, CD45^+CD11b^+ monocytes (+FasL^+ expression), CD3^+ T cells, CD3^+CD4^+ Thelper cells, CD3^+CD8^+ Tcytotox cells and CD19^+ B cells (for representative gating strategy, see FIG. 10A). […] Flow cytometric data was acquired using a BD FACSverse flow cytometer (BD Biosciences) and analyzed using FlowJo software (Treestar).

[3] = Infarct volumetry after stroke; conditions: VX-765 vs control treatment; 18 h after stroke
Text: as §1
Mice were euthanized by overdose of ketamine-xylazine and perfused intracardially with normal saline. […] Infarct area of each section was assessed by ImageJ software (NIH). […] The total infarct volume was determined by integrating measured areas and distances between sections.

splenic CD3^+ T cells [4] = test: Splenic T cell counts by FACS after burn injury; conditions: VX-765 100 mg kg^−1 i.p. 1 h prior to burn injury vs vehicle; normalized to sham
Procedure: (§3) Male C57Bl/6J mice (Charles River, Freiburg, Germany), aged 7-8 weeks, received a 35% total body surface area (TBSA) full thickness scald burn to the back through 10 seconds immersion in 98° C. water under deep anesthesia with 2% isoflurane and analgesia with 0.1 mg kg^−1 buprenorphine. Immediately after burn injury, the mice were resuscitated with 2 ml of lactated Ringer's solution (Baxter, Unterschleißheim, Germany) via i.p. injection as previously described (Hundeshagen et al., 2018; Bohannon et al., 2008; Toliver-Kinsky et al., 2005). Animals in the sham burn group were subjected to identical treatment except for water temperature during immersion being 36 C. Following burn injury or sham burn, mice were singly housed at room temperature (21° C.). […]
as §2

CD45^+ splenocytes [5] = test: CD45+ splenocyte counts by FACS after burn injury; conditions: VX-765 100 mg kg^−1 i.p. 1 h prior to burn injury vs vehicle; normalized to sham
Procedure: as §3, §2

S. pneumoniae = test: Post-stroke intranasal bacterial infection, CFU burden in trachea; conditions: VX765 vs control; 10^6 CFU S. pneumoniae intranasally 12 h after stroke; CFU 14 h later
Text: as §1
S. pneumoniae TIGR4, an encapsulated strain of serotype 4, was grown overnight on Columbia blood agar plates (37° C., 5% CO2), single colonies were cultured in Todd-Hewitt broth with 1% yeast extract to mid-logarithmic phase (OD600 nm: 0.35), washed, and diluted in sterile PBS to the desired concentration. […] Serial dilutions of lung and tracheal tissue homogenates were plated onto blood agar plates and CFU were determined after 16 h of incubation.

K. pneumoniae = test: Post-stroke intranasal bacterial infection, CFU burden in lung; conditions: VX765 vs control; 2×10^5 CFU K. pneumoniae intranasally 12 h after stroke; CFU 14 h later

Compound: CCO[C@@H]1OC(=O)C[C@@H]1NC(=O)[C@@H]1CCCN1C(=O)[C@@H](NC(=O)c1ccc(N)c(Cl)c1)C(C)(C)C [VX-765, Belnacasan]
- splenic CD3+ T cell counts (survival) (splenic CD3^+ T cells [1]): improved T cell survival; also recorded: improved survival after VX-765 treatment compared to control
- overall CD45+ splenocyte counts (spleen cellularity) (CD45^+ splenocytes [2]): improved T cell survival and spleen cellularity; also recorded: improved survival after VX-765 treatment compared to control
- infarct volume (primary lesion size) [3]: neither genetic nor pharmacological caspase-1 deficiency had a significant effect on the primary lesion size; also recorded: No significant difference in infarct volume between groups
- splenic CD3+ T cell counts (survival) (splenic CD3^+ T cells [4]): improved T cell survival; also recorded: improved survival after VX-765 treatment compared to control
- overall CD45+ splenocyte counts (spleen cellularity) (CD45^+ splenocytes [5]): improved T cell survival and spleen cellularity; also recorded: improved survival after VX-765 treatment compared to control
- bacterial load (CFU) in trachea (S. pneumoniae): reduced post-injury bacterial load comparable to sham-operated group
- bacterial load (CFU) in lung (K. pneumoniae): reduced post-injury bacterial load comparable to sham-operated group
